Experiment [1] has as its target T1, 5-lipoxygenase (Rattus norvegicus, UniProt P12527).
T1 construct: The cell-free homogenate was prepared by sonication of the cells followed by centrifugation at 40,000 xg; endogenous in cells; host or cells: RBL-1 (rat basophilic leukemia) cells, 40,000 xg supernatant of the sonicate
T1 sequence (P12527 1-673): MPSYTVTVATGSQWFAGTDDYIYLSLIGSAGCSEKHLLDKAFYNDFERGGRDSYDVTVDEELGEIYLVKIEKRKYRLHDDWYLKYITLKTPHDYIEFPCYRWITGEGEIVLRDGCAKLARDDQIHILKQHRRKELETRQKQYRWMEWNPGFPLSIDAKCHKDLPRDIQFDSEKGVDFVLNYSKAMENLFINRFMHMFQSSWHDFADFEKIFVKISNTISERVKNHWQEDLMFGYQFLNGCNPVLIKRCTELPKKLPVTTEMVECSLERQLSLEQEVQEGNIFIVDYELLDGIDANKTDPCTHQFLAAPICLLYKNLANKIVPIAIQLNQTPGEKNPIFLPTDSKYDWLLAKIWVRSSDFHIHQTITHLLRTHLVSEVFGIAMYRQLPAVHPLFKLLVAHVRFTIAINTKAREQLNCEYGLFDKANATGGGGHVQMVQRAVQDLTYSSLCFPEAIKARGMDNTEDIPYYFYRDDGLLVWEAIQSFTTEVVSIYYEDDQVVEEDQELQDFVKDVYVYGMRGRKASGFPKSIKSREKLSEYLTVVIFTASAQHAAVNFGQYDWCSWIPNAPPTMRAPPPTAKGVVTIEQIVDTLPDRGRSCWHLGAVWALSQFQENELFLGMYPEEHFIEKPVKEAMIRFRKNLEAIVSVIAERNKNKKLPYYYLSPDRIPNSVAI
As to the kind of experiment: Inhibition of 5-lipoxygenase in cell-free homogenate of rat basophilic leukemia (RBL-1) cells. The format is biochemical. The note with it: RBL-1 cell-free homogenate; for inhibition at 3 µM: read-out: Inhibition of 5-Lipoxygenase, % Inh. @ 3 μM. On the procedure: The inhibition of 5-lipoxygenase was tested in a cell-free homogenate by the procedure of B. Jakschik et al., Biochem.Biophys.Res.Comm. 95, 103 (1980). Basically, rat basophilic leukemia cells (RBL-1 cells) were maintained in culture in a suitable medium, and were collected by centrifugation prior to assay. The cell-free homogenate was prepared by sonication of the cells followed by centrifugation at 40,000 xg. The CaCl2 dependent production of lipoxygenase products from ^14 C-arachidonic acid in the 40,000 xg supernatant was monitored in the presence of buffer (or other vehicle) or drug. Products were isolated by acidification and extraction, followed by thin layer chromatography. Radioactive areas corresponding to the authentic lipoxygenase products were quantitated by liquid scintillation counting. Data was reported as the IC50, the concentration causing 50% inhibition of the generation of lipoxygenase products. The results are shown it Table I as the percent inhibition at 3 μM or the amount of compound necessary to cause 50% inhibition.

In experiment [2] the test system is Arachidonate-Induced Ear Edema. As to the kind of experiment: Arachidonic Acid-Induced Ear Edema Assay. The format is in vivo. The note with it: topical, mouse ear; for inhibition in vivo at 0.4 mg: 400 μg topically; for inhibition in vivo at 0.4 mg / inhibition in vivo at 0.2 mg / inhibition in vivo at 0.1 mg: read-out: Inhibition of Arachidonate-Induced Ear Edema, % Inh. (μg topically); for inhibition in vivo at 0.2 mg: 200 μg topically; for inhibition in vivo at 0.1 mg: 100 μg topically. How it is done: The topical anti-inflammatory activity of a compound was determined by its ability to inhibit an experimentally-induced inflammation in the mouse ear. Basically, four milligrams of arachidonic acid in acetone were applied to the dorsal surface of one ear with a microliter pipette. The mice were sacrificed at various times after application of arachidonic acid (one-half to six hours). A section of each ear was removed with a 7 mm round punch and weighed on an electronic or analytical balance. The difference in weight between treated and untreated ears was determined. Compounds to be evaluated for anti-inflammatory activity can be incorporated directly into the irritant mixture or at various times prior to or after application of arachidonic acid.
The degree of anti-inflammatory activity is shown in Table I, and is expressed in terms of the percent inhibition of ear weight increase.

Experiment [3] concerns Arachidonate-Induced Bronchospasm (lipoxygenase). As to the kind of experiment: Pulmonary Mechanics Assay: arachidonate-induced bronchospasm with indomethacin (SRS-A response, indicative of lipoxygenase inhibition). The experiment is classed as in vivo, male Hartley guinea pigs. The note with it: Cavia porcellus, guinea pig; for inhibition in vivo at 50 mg/kg: ID dosing, read-out: Inhibition of Arachidonate-Induced Bronchospasm (ID Dosing), % Inh. with Indomethacin. How it is done: (§1) The bronchodilating activity of the compounds was tested in a pulmonary mechanics assay. Basically, male Hartley guinea pigs (about 400-500 g) were anesthetized with urethane (2 g/kg, i.p.) and placed in a whole body Plethysmograph. Cannulations of a jugular vein and carotid artery were performed for compound administration and monitoring blood pressure, respectively. The trachea was cannulated for respiration at a constate volume via a miniature starling pump. A Validyne differential pressure transducer (±20 cm H2 O) sensed transpleural pressure via a 15 gauge needle inserted into the pleural cavity and a sidearm from the tracheal cannula. Tidal volume was sensed by another Validyne differential pressure transducer (±2 cm H2 O) from pressure changes inside the plethysmograph. An on-line Buxco pulmonary mechanics computer calculated air flow, dynamic lung compliance and lung resistance. The values were recorded on a print-out.
(§2) The guinea pigs were pretreated with succinyl choline (1.2 mg/kg, i.v.) to arrest spontaneous respiration. A control challenge of arachidonic acid (0.5-1.0 mg/kg, i.v.) was administered, and the animals were then dosed with the test compound by various routes. At least 10 minutes were allowed to expire between arachidonic acid challenges. A second challenge was given and compared to the control response. This comparison was indicative of cyclooxygenase inhibition. Indomethacin (10 mg/kg, i.v.) was administered immediately after the second challenge. A third challenge of a higher dose of arachidonic acid (5-10 mg/kg, i.v.) was given. This response was induced by SRS-A and compared to the responses elicited by a separate control group of animals. Activity was indicative of lipoxygenase inhibition. Propranolol (0.005 mg/kg. i.v.) may be given prior to the third challenge to enhance the response to SRS-A.
(§3) Bronchoconstriction induced by arachidonic acid with or without indomethacin was expressed as maximum percent change in dynamic lung compliance (Cdyn) and maximum percent increase in lung resistance (RL). Each guinea pig served as its own control for cyclooxygenase evaluation. The results are shown in Table I and are expressed as the percent inhibition of control.

For experiment [4], the system named is Arachidonate-Induced Bronchospasm (cyclooxygenase). Briefly: Pulmonary Mechanics Assay: arachidonate-induced bronchospasm without indomethacin (indicative of cyclooxygenase inhibition). The format is in vivo, male Hartley guinea pigs. The note with it: Cavia porcellus, guinea pig; for inhibition in vivo at 50 mg/kg: ID dosing, read-out: Inhibition of Arachidonate-Induced Bronchospasm (ID Dosing), % Inh. without Indomethacin. How it is done: as §1, §2, §3

The mark [5] stands for this setting: IV dosing, read-out: Inhibition of Arachidonate-Induced Bronchospasm (IV Dosing), % Inh. with Indomethacin.
[6] abbreviates: IV dosing, read-out: Inhibition of Arachidonate-Induced Bronchospasm (IV Dosing), % Inh. without Indomethacin.

pIC50: −log10 of the molar value.

These results are taken from patent US5066658A, “Substituted hydroxyureas” (Ortho Pharmaceutical Corporation, priority 1990, dated 1991).

With `CCCCCCCCCCN1CCN(O)C1=O` [Example 25, 1-Decyl-3-hydroxyimidazolidin-2-one], in experiment [1], the negative logarithm of the IC50 (pIC50) (as a rule, the IC50 on a negative log10 scale, so that one unit is a factor of ten) is 6.13. For the same molecule, in experiment [2], the “Inhibition of Arachidonate-Induced Ear Edema, ED50” value (shortened to “Inhibition … ED50”) stood at 90 µg and the inhibition in vivo at 0.4 mg came to 81%. For the same molecule, the inhibition in vivo at 20 mg/kg in experiment [3] (IV dosing, 20 mg/kg, read-out: Inhibition of Arachidonate-Induced Bronchospasm (IV Dosing), % Inh. with Indomethacin) was found to be 62%. Also, the inhibition in vivo at 20 mg/kg in experiment [4] (IV dosing, 20 mg/kg, read-out: Inhibition of Arachidonate-Induced Bronchospasm (IV Dosing), % Inh. without Indomethacin) is 85%.

For the molecule `CCCCCCCCCCN1CCCN(O)C1=O` [Example 26, 1-Decyl-3-hydroxy-3,4,5,6-tetrahydro-lH-pyrimidin-2-one], the pIC50 in experiment [1] is 6.15. The inhibition in vivo at 0.4 mg in experiment [2] came to 30%.

`CCCCCCCCCCC1CN(O)C(=O)N1C` (stereo not drawn) [Example 28, 4-Decyl-1-hydroxy-3-methylimidazolidin-2-one]: in experiment [1], the inhibition (in general, how much of the control response was suppressed) at 3 µM was 96% and the negative-log IC50 (pIC50) is 6.55. For the same molecule, in experiment [2], the “Inhibition … ED50” value was 134 µg and the inhibition in vivo at 0.4 mg is 85%.

On to `CCCCCCCCCCN1C(=O)N(O)CC1C(=O)OCC` (stereo not drawn) [Example 27, Ethyl 3-decyl-1-hydroxyimidazolidin-2-one-4-carboxylate], for which the negative-log IC50 (pIC50) in experiment [1] is 5.85. In experiment [2], the inhibition in vivo at 0.4 mg is 13%.

In turn, `CCCCCCCCN1CCN(O)C1=O` [Example 24, 1-Octyl-3-hydroxyimidazolidin-2-one] had a pIC50 in experiment [1] of 5.28. Besides, in experiment [2], the inhibition in vivo at 0.2 mg turned out to be 27%.

In turn, `CCCCCCCCCCN(O)C(=O)N(C)C` [Example 11, N,N-Dimethyl-N'-decyl-N'-hydroxyurea] had a negative logarithm of the IC50 (pIC50) in experiment [1] of 7.00. The “Inhibition … ED50” value in experiment [2] amounted to 43 µg. Further, the inhibition in vivo at 0.4 mg in experiment [2] stood at 90%. For the same molecule, the inhibition in vivo at 50 mg/kg in experiment [3] is -46%; in experiment [4], 36%. In addition, the inhibition in vivo at 15 mg/kg in experiment [3] (setting [5]) worked out at 98%; in experiment [4] (setting [6]), 95%.

In experiment [1], `CCCCCCCCCCN(O)C(=O)NC` [Example 2, N-Methyl-N'-decyl-N'-hydroxyurea] showed a pIC50 of 7.05. In addition, the “Inhibition … ED50” value in experiment [2] was 29 µg. Besides, the inhibition in vivo at 0.4 mg in experiment [2] turned out to be 82%. For the same molecule, the inhibition in vivo at 15 mg/kg in experiment [3] (setting [5]) was determined as 44%; in experiment [4] (setting [6]), 32%.

For the molecule `CCCCCCCCCCNC(=O)N(O)CCCC(=O)OCC` [Example 19, N-Decyl-N'-[3-(ethoxycarbonyl)propyl]-N'-hydroxyurea], the inhibition at 3 µM in experiment [1] amounted to 94%. Moreover, in experiment [2], the “Inhibition … ED50” value was determined as 183 µg and the inhibition in vivo at 0.4 mg amounted to 60%. Besides, the inhibition in vivo at 50 mg/kg in experiment [3] came out at 0%. Besides, in experiment [4], the inhibition in vivo at 50 mg/kg is -89%.

Turning to `CCCCCCCCCCCCCCN(O)C(=O)N(C)C` [Example 15, N,N-Dimethyl-N'-tetradecyl-N'-hydroxyurea], the inhibition at 3 µM in experiment [1] worked out at 100%. Further, in experiment [2], the inhibition in vivo at 0.2 mg was found to be 26%. In addition, the figures for the inhibition in vivo at 50 mg/kg in experiment [3] and in experiment [4] were 46% and -26%, respectively.

Regarding `CCCCCCCN(O)C(=O)N(C)C` [Example 9, N,N-Dimethyl-N'-heptyl-N'-hydroxyurea], the inhibition at 3 µM in experiment [1] amounted to 64%. Also, the “Inhibition … ED50” value in experiment [2] was 55 µg.

In the case of `CCCCCCCCN(O)C(=O)N(C)C` [Example 7, N,N-Dimethyl-N'-octyl-N'-hydroxyurea], in experiment [1], the inhibition at 3 µM was found to be 77% and the pIC50 is 5.74. For the same molecule, the “Inhibition … ED50” value in experiment [2] amounted to 49 µg. Besides, the inhibition in vivo at 15 mg/kg in experiment [3] (setting [5]) was 41%. The inhibition in vivo at 15 mg/kg in experiment [4] (setting [6]) turned out to be 61%.

As for `CN(O)C(=O)NCCc1ccc(-c2ccccc2)cc1` [Example 31], the inhibition at 3 µM in experiment [1] came out at 39%. Also, in experiment [2], the inhibition in vivo at 0.2 mg came to 40%.

Take `CCCCCCCCCCN(O)C(=O)NCC(=O)OCC` [Example 3, N-(Ethoxycarbonyl)methyl-N'-decyl-N'-hydroxyurea]: the inhibition at 3 µM in experiment [1] worked out at 100%. The inhibition in vivo at 0.4 mg in experiment [2] is 51%.

As for `CCCCCCCCCN(O)C(=O)N(C)C` [Example 8, N,N-Dimethyl-N'-nonyl-N'-hydroxyurea], the inhibition at 3 µM in experiment [1] came to 93%. In addition, in experiment [2], the inhibition in vivo at 0.2 mg came out at 95%.

In the case of `COc1ccc(CC(C)(C)NC(=O)N(C)O)cc1OC` [Example 56, N-[2-(3,4-Dimethoxyphenyl)-1,1-dimethylethyl]-N'hydroxy-N'-methylurea], in experiment [1], the inhibition at 3 µM was found to be 3%. In experiment [2], the inhibition in vivo at 0.1 mg stood at 38%.

Take `COc1ccc(CCNC(=O)N(C)O)cc1OCc1ccccc1` [Example 69, N-[2-(3-Benzyloxy-4-methoxyphenyl)ethyl]-N'-hydroxy-N'-methylurea]: the inhibition at 3 µM in experiment [1] came to 41%. The inhibition in vivo at 0.2 mg in experiment [2] is 38%.

In the case of `CCCCCCCCCC(C)(C)NC(=O)N(C)O` [Example 20, N-(1,1-Dimethyldecyl)-N'-methyl-N'-hydroxyurea], the inhibition at 3 µM in experiment [1] came to 65%. Besides, in experiment [2], the inhibition in vivo at 0.1 mg stood at 47%.

For `COc1ccc(CCNC(=O)N(OC(C)=O)C(C)(C)C)cc1OC` [Example 52, N-[2-(3,4-Dimethoxyphenyl)ethyl]-N'-acetoxy-N'-t-butylurea], in experiment [1], the inhibition at 3 µM is 9%. Moreover, the inhibition in vivo at 0.1 mg in experiment [2] was determined as 69%.

Take `CN(O)C(=O)NCCCCCCCOCc1ccccc1` [Example 39, N-[7-(Benzyloxy)heptyl]-N'hydroxy-N'-methylurea]: the inhibition at 3 µM in experiment [1] came to 100%. Also, in experiment [2], the “Inhibition … ED50” value stood at 31 µg and the inhibition in vivo at 0.2 mg was 70%.
